From article PMC9381133 (Molecular Cancer Therapeutics, 2022)
pIC50: −log10 of the molar value.

Target: T1, CD73 (ecto-5′-nucleotidase) (Mus musculus, UniProt Q61503)
T1 sequence (Q61503 29-551): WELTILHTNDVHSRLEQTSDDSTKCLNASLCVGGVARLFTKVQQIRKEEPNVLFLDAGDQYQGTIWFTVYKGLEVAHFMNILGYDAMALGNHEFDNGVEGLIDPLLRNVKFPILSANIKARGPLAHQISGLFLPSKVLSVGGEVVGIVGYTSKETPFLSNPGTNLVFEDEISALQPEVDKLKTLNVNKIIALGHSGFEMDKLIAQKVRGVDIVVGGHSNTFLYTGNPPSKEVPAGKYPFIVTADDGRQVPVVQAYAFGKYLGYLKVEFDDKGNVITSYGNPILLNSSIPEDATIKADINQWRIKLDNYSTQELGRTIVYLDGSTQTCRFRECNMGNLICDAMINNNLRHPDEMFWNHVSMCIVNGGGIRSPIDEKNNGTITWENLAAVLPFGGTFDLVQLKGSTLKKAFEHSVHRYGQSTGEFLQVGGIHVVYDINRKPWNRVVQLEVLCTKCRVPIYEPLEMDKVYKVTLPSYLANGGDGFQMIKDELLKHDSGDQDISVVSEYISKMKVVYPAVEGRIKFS
Experiment: […]5-AMP hydrolysis in B16F10 tumor homogenate, LC/MS of […]5-adenosine
Format: biochemical

C[C@H](Nc1cc(Cl)nc2c1cnn2[C@@H]1O[C@H](COP(=O)(O)CP(=O)(O)O)[C@@H](O)[C@H]1O)c1ccccc1F [AB680]
pIC50: 9.15
